Reference: patent US6855348B2, “Insecticidal composition derived from plants” (priority 2000, dated 2005)
Where two headings read alike, the source gives them in different places.

Legend:
Dermatophagoides farinae = tested on: Dermatophagoides farinae
Method: (§1) American house dust mite (Dermatophagoides farinae) and European house dust mite (Dermatophagoide pteronyssinus) were maintained at 75±5% RH (relative humidity) at 25±1° C., and were provided a feed mixture of fish meal and multi-vitamins in a ratio of 1 to 1 on a 12.5×10.5×5 cm container.
(§2) The starting concentration is important for the primary screening of bioactive compounds from plant extracts and oils. […] 1 mg of the methanol extracts or oils were suspended with 40 μl of methanol and were transferred to a colorless microtube (2 ml). The microtube was vertically shaken several times to disperse the contents to the wall and cap of the microtube and it was placed in a freeze dryer for 1 hour in order to volatilize the solvent. Twenty-five mites were placed on the prepared microtube, and all treatment groups were transferred to an incubator kept at […]. Active mites only were selected with a fine brush under a microscope. Mortalities were determined with a microscope at 24 hours and 48 hours after treatment. […] All tests were replicated four or more times. The percentage mortality was determined and transformed to arcsine square-root values for analysis of variance (ANOVA). Treatment means were compared and separated by Scheffe's test at the P=0.05 (SAS Institute, 1996). Means (±standard error) of untransformed data are reported. Controls received 40 μl of methanol.

[1] = tested on: Dermatophagoides pteronyssinus
Method: as §1, §2

house dust mites = format: in vivo; conditions: for acaricidal activity / mortality against two species of house dust mites: 1 mg/tube, 48 hours after treatment; for acaricidal activity: at 0.4 mg and less
Method: All tests were replicated four or more times. […] Means (±standard error) of untransformed data are reported. Controls received 40 μl of methanol.

[2] = tested on: mites inhabiting carpets and chairs; conditions: homes, cited from earlier work
[3] = synergic effect test, 0.25 mg/tube of each compound, 24 hr
[4] = 0.5 mg/tube, 48 hr, listed as Allyl isothiocyanate
[5] = 0.5 mg/tube, 48 hr, listed as Butyl isothiocyanate

| Structure (SMILES) | Mortality (Means ± standard error, %) (Dermatophagoides farinae; 0.125 mg/tube, 24 hr) | Mortality (Means ± standard error, %) (Dermatophagoides farinae; 0.125 mg/tube, 48 hr) | Mortality (Means ± standard error, %) (Dermatophagoides farinae; 0.2 mg/tube, 24 hr) | Mortality (Means ± standard error, %) (Dermatophagoides farinae; 0.2 mg/tube, 48 hr) | Mortality (Means ± standard error, %) (Dermatophagoides farinae; 0.25 mg/tube, 24 hr) | Mortality (Means ± standard error, %) (Dermatophagoides farinae; 0.25 mg/tube, 48 hr) | Mortality (Means ± standard error, %) (Dermatophagoides farinae; 0.3 mg/tube, 24 hr) | Mortality (Means ± standard error, %) (Dermatophagoides farinae; 0.3 mg/tube, 48 hr) | Mortality (Means ± standard error, %) (Dermatophagoides farinae; 0.4 mg/tube, 24 hr) | Mortality (Means ± standard error, %) (Dermatophagoides farinae; 0.4 mg/tube, 48 hr) | Mortality (Means ± standard error, %) (Dermatophagoides farinae; 0.5 mg/tube, 24 hr) | Mortality (Means ± standard error, %) (Dermatophagoides farinae; 0.5 mg/tube, 48 hr) | Mortality (Means ± standard error, %) (Dermatophagoides farinae; 1 mg/tube, 24 hr) | Mortality (Means ± standard error, %) (Dermatophagoides farinae; 1 mg/tube, 48 hr) | Mortality (Means ± standard error, %) ([1]; 0.125 mg/tube, 24 hr) | Mortality (Means ± standard error, %) ([1]; 0.125 mg/tube, 48 hr) | Mortality (Means ± standard error, %) ([1]; 0.2 mg/tube, 24 hr) | Mortality (Means ± standard error, %) ([1]; 0.2 mg/tube, 48 hr) | Mortality (Means ± standard error, %) ([1]; 0.25 mg/tube, 24 hr) | Mortality (Means ± standard error, %) ([1]; 0.25 mg/tube, 48 hr) | other results |
| --- | --- | --- | --- | --- | --- | --- | --- | --- | --- | --- | --- | --- | --- | --- | --- | --- | --- | --- | --- | --- | --- |
| CCN(CC)C(=O)c1cccc(C)c1 [DEET, reference compound] |  |  |  |  |  |  |  |  |  |  |  |  |  |  |  |  |  |  |  |  | Mortality (Means ± standard error, %) (Dermatophagoides farinae; [3]): 96.8%; Mortality (Means ± standard error, %) [1, 3]: 16.8% |
| C=CCN=C=S [allyl isothiocyanate] | 1.0 ± 1.0 e % | 0 e % | 6.0 ± 1.2 d % | 9.0% | 7.0 ± 3.0 d % | 8.0% | 22.0 ± 2.6 c % | 27.0% | 44.0 ± 2.8 b % | 46.0% | 90.0 ± 2.6 a % | 97.0% | 100 a % | 100 a % | 6.0 ± 3.5 d % | 9.0 ± 2.5 c % | 7.0 ± 1.0 cd % | 9.0 ± 1.0 c % | 9.0 ± 1.9 cd % | 10.0 ± 2.6 bc % | Mortality (Means ± standard error, %) (Dermatophagoides farinae; [4]): 94%; Mortality (Means ± standard error, %) ([1]; 0.3 mg/tube, 24 hr): 25.0 ± 2.5 bc %; Mortality (Means ± standard error, %) ([1]; 0.3 mg/tube, 48 hr): 32.0 ± 2.8 b %; Mortality (Means ± standard error, %) ([1]; 0.4 mg/tube, 24 hr): 33.0 ± 2.5 b %; Mortality (Means ± standard error, %) ([1]; 0.4 mg/tube, 48 hr): 42.0 ± 4.2 b %; Mortality (Means ± standard error, %) ([1]; 0.5 mg/tube, 24 hr): 92.0 ± 2.6 a %; Mortality (Means ± standard error, %) ([1]; 0.5 mg/tube, 48 hr): 94.0 ± 2.6 a %; Mortality (Means ± standard error, %) [1, 4]: 96%; Mortality (Means ± standard error, %) ([1]; 1 mg/tube, 24 hr): 100 a %; Mortality (Means ± standard error, %) ([1]; 1 mg/tube, 48 hr): 100 a %; acaricidal activity / mortality against two species of house dust mites (house dust mites): 100%; acaricidal activity (house dust mites): no significant acaricidal activity |
| CCCCN=C=S [butyl isothiocyanate] | 1.0 ± 1.0 d % | 2.0% | 1.0 ± 1.0 e % | 3.0% | 20.0 ± 1.6 c % | 27.0% | 26.0 ± 2.0 c % | 34.0% | 44.0 ± 2.8 b % | 48.0% | 84.0 ± 5.2 a % | 94.0% | 99.0 ± 1.0 a % | 100 a % | 1.0 ± 1.0 d % | 2.0 ± 1.2 d % | 7.0 ± 1.0 cd % | 7.0 ± 1.0 cd % | 21.0 ± 2.5 cd % | 30.0 ± 8.7 bc % | Mortality (Means ± standard error, %) (Dermatophagoides farinae; [5]): 97%; Mortality (Means ± standard error, %) ([1]; 0.3 mg/tube, 24 hr): 32.0 ± 1.6 bc %; Mortality (Means ± standard error, %) ([1]; 0.3 mg/tube, 48 hr): 39.0 ± 2.5 bc %; Mortality (Means ± standard error, %) ([1]; 0.4 mg/tube, 24 hr): 39.0 ± 2.5 b %; Mortality (Means ± standard error, %) ([1]; 0.4 mg/tube, 48 hr): 45.0 ± 2.5 b %; Mortality (Means ± standard error, %) ([1]; 0.5 mg/tube, 24 hr): 92.0 ± 2.6 a %; Mortality (Means ± standard error, %) ([1]; 0.5 mg/tube, 48 hr): 96.0 ± 2.3 a %; Mortality (Means ± standard error, %) [1, 5]: 94%; Mortality (Means ± standard error, %) ([1]; 1 mg/tube, 24 hr): 99.0 a^c %; Mortality (Means ± standard error, %) ([1]; 1 mg/tube, 48 hr): 100 a %; acaricidal activity / mortality against two species of house dust mites (house dust mites): 100%; acaricidal activity (house dust mites): no significant acaricidal activity |
| OC/C=C/c1ccccc1 [cinnamyl alcohol] | 1.0 ± 1.0d % | 2.0 ± 1.2c % | 7.0 ± 1.0c % | 7.0 ± 1.0c % | 10.0 ± 3.8c % | 10.0 ± 4.1c % | 39.0 ± 2.6b % | 45.0 ± 1.9b % | 58.0 ± 2.6b % | 65.0 ± 1.9ab % | 90.0% | 97.0 ± 1.9a % | 99.0 ± 1.0a % | 100a % | 1.0 ± 1.0e % | 3.0 ± 1.9d % | 6.0 ± 1.2d % | 10.0 ± 1.2c % | 15.0 ± 1.9d % | 14.0 ± 2.6c % | Mortality (Means ± standard error, %) ([1]; 0.3 mg/tube, 24 hr): 35.0 ± 2.5c %; Mortality (Means ± standard error, %) ([1]; 0.3 mg/tube, 48 hr): 40.0 ± 3.7b %; Mortality (Means ± standard error, %) ([1]; 0.4 mg/tube, 24 hr): 56.0 ± 2.8b %; Mortality (Means ± standard error, %) ([1]; 0.4 mg/tube, 48 hr): 62.0 ± 2.6b %; Mortality (Means ± standard error, %) ([1]; 0.5 mg/tube, 24 hr): 90.0%; Mortality (Means ± standard error, %) ([1]; 0.5 mg/tube, 48 hr): 97.0 ± 1.9a %; Mortality (Means ± standard error, %) ([1]; 1 mg/tube, 24 hr): 99.0 ± 1.0a %; Mortality (Means ± standard error, %) ([1]; 1 mg/tube, 48 hr): 100a % |
| CCCCOC(=O)c1ccccc1C(=O)OCCCC [dibutyl phtalate, reference compound] |  |  |  |  |  |  |  |  |  |  |  |  |  |  |  |  |  |  |  |  | Mortality (Means ± standard error, %) (Dermatophagoides farinae; [3]): 92.0%; Mortality (Means ± standard error, %) [1, 3]: 95.2% |
| CCN(CC)c1nc(C)cc(OP(=S)(OC)OC)n1 [pirimiphos-methyl] |  |  |  |  |  |  |  |  |  |  |  |  |  |  |  |  |  |  |  |  | control of mites inhabiting carpets ([2]; carpets): 60%; control of mites inhabiting chairs ([2]; chairs): 50% |
| O=C/C=C/c1ccccc1 [trans-cinnamaldehyde] | 18.0 ± 2.6d % | 23.0 ± 3.4c % | 19.0 ± 2.5cd % | 29.0 ± 1.9bc % | 21.0 ± 2.5cd % | 30.0 ± 8.7bc % | 32.0 ± 1.6bc % | 39.0 ± 2.5bc % | 41.0 ± 2.5b % | 45.0 ± 2.5b % | 94.0% | 96.0 ± 2.3a % | 99.0 a^c % | 100a % | 6.0 ± 3.5d % | 9.0 ± 2.5c % | 7.0 ± 1.0cd % | 9.0 ± 1.0c % | 9.0 ± 1.9cd % | 10.0 ± 2.6bc % | Mortality (Means ± standard error, %) ([1]; 0.3 mg/tube, 24 hr): 25.0 ± 2.5bc %; Mortality (Means ± standard error, %) ([1]; 0.3 mg/tube, 48 hr): 32.0 ± 2.8b %; Mortality (Means ± standard error, %) ([1]; 0.4 mg/tube, 24 hr): 33.0 ± 2.5b %; Mortality (Means ± standard error, %) ([1]; 0.4 mg/tube, 48 hr): 42.0 ± 4.2b %; Mortality (Means ± standard error, %) ([1]; 0.5 mg/tube, 24 hr): 84.0%; Mortality (Means ± standard error, %) ([1]; 0.5 mg/tube, 48 hr): 94.0 ± 2.6a %; Mortality (Means ± standard error, %) ([1]; 1 mg/tube, 24 hr): 100a %; Mortality (Means ± standard error, %) ([1]; 1 mg/tube, 48 hr): 100a % |
